Common to all, as to type: physicochemical
The nature of data set [1]: pH triggered self-assembly and gelation. As for the experimental part: (§1) After synthesis (see, example 10), the PA of FIG. 1 (characterized by ^1H NMR and MALDI-TOF MS: [M-H]^−1=1333) was treated with dithiothreitol (DTT) at a pH of 8 to reduce all cysteine residues to free thiols. […] Solutions more concentrated than 2.5 mg/ml form birefringent gels in water that are self-supporting upon inversion of the container. […] Negatives were digitized in the Umax PowerLook scanner with resolution 1200 dpi. The average thickness of the PA fibers was determined by two different procedures. First the Fourier transform of the images and following measurements of the distances between the peaks were performed in the NIH Image […] program. The second approach applied was averaging technique based on the cross-correlation method, widely used in single particle reconstruction using the EMAN […] program. For each data set 1200-1300 individual boxes were selected.
Upon lowering the pH below 4 with HCl the material self-assembles; when the pH is brought back to neutrality with KOH it disassembles. This pH triggered self-assembly and gelation allows the material to respond to its environment and thus may have applications in controlled release of molecules (W. A. Petka, J. L. Hardin, K. P. McGrath, D. Wirtz, D. A. Tirrell, Science 281, 389-392 (1998)).

The nature of data set [2]: TEM / cryo-TEM of self-assembled fibers. As for the experimental part: as §1
The nature of data set [3]: stability of fibers in alkaline solution (pH 8). The source says:
Following self-assembly of PA molecules into fibers, the cysteine thiol groups were oxidized by treatment with 0.01M iodine. […] Importantly, the covalent capture process of this invention can be easily reversed by treating the fibers with a mild reducing agent such as DTT. […] Together with the controlled self-assembly, reversible cross-linking provides a highly dynamic system which can interconvert between discrete molecules, self-assembled supramolecular fibers, covalently captured polymeric fibers and back again to single small molecules depending solely on the environment in which the material is placed.

Data set [4] in a line: solubility of the PA in water. As for the experimental part:
as §1

Each structure is given as a SMILES string. Square brackets hold non-standard residues; d marks the D form. Peptide text beside a SMILES is read from it. * marks the point of attachment. Palmitoyl = CCCCCCCCCCCCCCCC(=O)*; pS = N[C@@H](COP(=O)(O)O)C(=O)O A value given as a limit tells only on which side of the number the result lay.

A word on the solubility: it is how much of the substance goes into solution per volume. Higher therefore signals a readily soluble substance. `CCCCCCCCCCCCCCCC(=O)N[C@@H](CS)C(=O)N[C@@H](CS)C(=O)N[C@@H](CS)C(=O)N[C@@H](CS)C(=O)NCC(=O)NCC(=O)NCC(=O)N[C@@H](COP(=O)(O)O)C(=O)N[C@@H](CCCNC(=N)N)C(=O)NCC(=O)N[C@@H](CC(=O)O)C(=O)O` [PA 1, CCCCGGGS(P)RGD] (Palmitoyl-CCCCGGG[pS]RGD-OH): the “concentration dependence of fiber formation” value in data set [1] (0.01 mg/ml to 50 mg/ml) is “concentration independent”. In addition, the “behaviour when pH is brought back to neutrality” value in data set [1] (KOH) is “disassembles”. In addition, the “concentration at which solutions form self-supporting birefringent gels” value in data set [1] (in water) was above 2.5 mg/mL. Further, the “pH at which the material self-assembles” value in data set [1] (pH lowered with HCl) is “below 4”. Further, the fiber diameter in data set [2] (TEM, positively and negatively stained dried fibers) came out at 6.0±1 nm; in data set [2] (cryo-TEM, native hydrated state) it was 7.6±1 nm. For the same compound, the fiber length entry in data set [2] (cryo-TEM of gels) is reported as “up to several microns”. Also, the “stability to alkaline solutions” value in data set [3] is recorded as “disassemble within minutes”. Also, the solubility upon acidification result in data set [4] (solution below pH 4) was “rapidly becomes insoluble”. In addition, in data set [4] (water, pH 8, after DTT reduction of cysteines), the solubility was above 50 mg/mL.

The values are drawn from patent US7838491B2, “Self-assembly and mineralization of peptide-amphiphile nanofibers” (Northwestern University, priority 2001, dated 2010).
